Test results taken from US20080221086A1, “Novel Inhibitors of Glutaminyl Cyclase” (PROBIODRUG AG, priority 2006, published 2008).
Read-outs that look alike come from different tables or passages of the source.

Experiments:
hQC = hQC (Homo sapiens, UniProt Q16769); assay: Fluorometric assay of glutaminyl cyclase (QC) inhibition, H-Gln-βNA or H-Gln-AMC substrate; type: biochemical
Method in brief: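 Ki values were obtained by fitting progress curves to a competitive-inhibition equation, and the rapid screen used 4 mM inhibitor with substrate at 1 KM. Both readouts coupled pyroglutamyl aminopeptidase at pH 8.0 and 30° C: H-Gln-βNA at 0.2 mM (ex/em 320/410 nm) or H-Gln-AMC (380/460 nm).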

[1] = compound from preparative synthesis, purified by chromatography, fluorescent assay, read-out: IC50 hQC

Chain of hQC (Q16769 29-361): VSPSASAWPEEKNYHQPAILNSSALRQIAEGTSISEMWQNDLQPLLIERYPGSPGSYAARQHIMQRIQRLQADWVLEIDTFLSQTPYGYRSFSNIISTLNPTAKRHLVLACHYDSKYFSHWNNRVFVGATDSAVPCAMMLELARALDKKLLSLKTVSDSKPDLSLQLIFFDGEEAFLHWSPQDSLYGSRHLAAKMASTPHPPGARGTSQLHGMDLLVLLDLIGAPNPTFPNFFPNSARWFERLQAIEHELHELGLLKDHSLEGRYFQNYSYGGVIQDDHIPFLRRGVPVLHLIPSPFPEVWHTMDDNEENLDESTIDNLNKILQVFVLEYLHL

| Structure (SMILES) | melting point | IC50 (hQC; [1]) | IC50 (hQC; read-out: IC50) |
| --- | --- | --- | --- |
| O=C1N/C(=N/Cc2ccccc2)C(c2ccc(Br)cc2)N1c1ccc2[nH]cnc2c1 (stereo not drawn) [Compound 216, 1-(1H-Benzoimidazol-5-yl)-4-benzylimino-5-(4-bromo-phenyl)-imidazolidin-2-one] | 244 °C | 22 nM | 4 nM |
| O=C1N/C(=N\C2CCCC2)C(c2ccc3[nH]ccc3c2)N1c1ccc2[nH]cnc2c1 (stereo not drawn) [Compound 226, 1-(1H-Benzoimidazol-5-yl)-4-(cyclopentylimino)-5-(1H-indol-5-yl)-imidazolidin-2-one] | 210 °C | 34.5 nM | 4 nM |
| Cc1cccc(C2/C(=N\Cn3nnc4ccccc43)NC(=O)N2c2ccc3[nH]cnc3c2)c1 (stereo not drawn) [Compound 324, 1-(1H-Benzoimidazol-5-yl)-4-benzotriazol-1-ylmethylimino-5-m-tolyl-imidazolidin-2-one] |  |  | 3100 nM |
| O=C1N/C(=N/Cn2nnc3ccccc32)CN1c1ccc2[nH]cnc2c1 [Compound 325, 1-(1H-Benzoimidazol-5-yl)-4-benzotriazol-1-ylmethylimino-imidazolidin-2-one] |  |  | 6700 nM |
| O=C1N/C(=N\C(Cc2ccccc2)c2ccccc2)C(c2cc3c(cc2Br)OCO3)N1c1ccc2[nH]cnc2c1 (stereo not drawn) [Compound 326, 1-(1H-Benzoimidazol-5-yl)-5-(6-bromo-benzo1,3dioxol-5-yl)-4-1,2-diphenyl-ethylimino-imidazolidin-2-one] |  |  | 4 nM |
| C/N=C1\NC(=O)N(c2ccc3[nH]cnc3c2)C1c1coc2ccc(C)cc2c1=O (stereo not drawn) [Compound 328, 1-(1H-Benzoimidazol-5-yl)-4-methylimino-5-(6-methyl-4-oxo-4H-chromen-3-yl)-imidazolidin-2-one] |  |  | 1300 nM |
| CC1=CC(C)C(C2/C(=N/c3ccc4c(c3)OCCO4)NC(=S)N2c2ccc3[nH]cnc3c2)CC1 (stereo not drawn) [Compound 330, 1-(1H-Benzoimidazol-5-yl)-4-2,3-dihydro-benzo1,4dioxin-6-ylimino-5-(2,4-dimethyl-cyclohex-3-enyl)-imidazolidine-2-thione] |  |  | 9400 nM |
| O=C1N/C(=N/c2ccc3c(c2)OCCO3)C(c2ccc(Br)cc2)N1c1ccc2[nH]cnc2c1 (stereo not drawn) [Compound 331, 1-(1H-Benzoimidazol-5-yl)-5-(4-bromo-phenyl)-4-[2,3-dihydro-benzo[1,4]dioxin-6-ylimino]-imidazolidin-2-one] |  | 66.8 nM | 4 nM |
| O=C1N/C(=N\c2ccc3c(c2)OCCO3)C(c2cccc(Br)c2)N1c1ccc2nc[nH]c2c1 (stereo not drawn) [Compound 334, 1-(3H-Benzoimidazol-5-yl)-5-(3-bromo-phenyl)-4-2,3-dihydro-benzo1,4dioxin-6-ylimino-imidazolidin-2-one] |  |  | 400 nM |
| O=C1N/C(=N\Cn2nnc3ccccc32)C(c2ccccc2F)N1c1ccc2[nH]cnc2c1 (stereo not drawn) [Compound 337, 1-(1H-Benzoimidazol-5-yl)-4-benzotriazol-1-ylmethylimino-5-(2-fluoro-phenyl)-imidazolidin-2-one] |  |  | 1300 nM |
| O=C1N/C(=N\C(Cc2ccccc2)c2ccccc2)C(c2cccc(Br)c2)N1c1ccc2[nH]cnc2c1 (stereo not drawn) [Compound 338, 1-(1H-Benzoimidazol-5-yl)-5-(3-bromo-phenyl)-4-1,2-diphenyl-ethylimino-imidazolidin-2-one] |  |  | 4 nM |
| C/N=C1/NC(=O)N(c2ccc3[nH]cnc3c2)C1c1ccc(Cl)c(F)c1 (stereo not drawn) [Compound 339, 1-(1H-Benzoimidazol-5-yl)-5-(4-chloro-3-fluoro-phenyl)-4-methylimino-imidazolidin-2-one] |  |  | 400 nM |
| O=C(C/N=C1/NC(=O)N(c2ccc3[nH]cnc3c2)C1c1ccc(Cl)cc1)N1CCC(O)C1 (stereo not drawn) [Compound 340, 1-(1H-Benzoimidazol-5-yl)-5-(4-chloro-phenyl)-4-2-(3-hydroxy-pyrrolidin-1-yl)-2-oxo-ethylimino-imidazolidin-2-one] |  |  | 4000 nM |
| O=C(C/N=C1/NC(=O)N(c2ccc3[nH]cnc3c2)C1c1cccc(Br)c1)N1CCSCC1 (stereo not drawn) [Compound 342, 1-(1H-Benzoimidazol-5-yl)-5-(3-bromo-phenyl)-4-2-oxo-2-thiomorpholin-4-yl-ethylimino-imidazolidin-2-one] |  |  | 400 nM |
| O=C(C/N=C1\NC(=O)N(c2ccc3[nH]cnc3c2)C1c1ccnc2ccccc12)N1CCC(O)CC1 (stereo not drawn) [Compound 343, 1-(1H-Benzoimidazol-5-yl)-4-2-(4-hydroxy-piperidin-1-yl)-2-oxo-ethylimino-5-quinolin-4-yl-imidazolidin-2-one] |  |  | 6700 nM |
| Cc1ccc(C2/C(=N/C3CCCCCC3)NC(=S)N2c2ccc3nc[nH]c3c2)c(C)c1 (stereo not drawn) [Compound 344, 1-(3H-Benzoimidazol-5-yl)-4-cycloheptylimino-5-(2,4-dimethyl-phenyl)-imidazolidine-2-thione] |  |  | 4900 nM |
| O=C1N/C(=N/CCc2ccccn2)C(c2c[nH]c3cc(F)ccc23)N1c1ccc2[nH]cnc2c1 (stereo not drawn) [Compound 345, 1-(1H-Benzoimidazol-5-yl)-5-(6-fluoro-1H-indol-3-yl)-4-2-pyridin-2-yl-ethylimino-imidazolidin-2-one] |  |  | 4000 nM |

Continued by falling IC50 (hQC; read-out: IC50), values first:

| melting point | IC50 (hQC; [1]) | IC50 (hQC; read-out: IC50) | Structure (SMILES) |
| --- | --- | --- | --- |
|  |  | 9400 nM | Cc1ccc(C2/C(=N/C(C)(C)CC(C)(C)C)NC(=S)N2c2ccc3nc[nH]c3c2)c(C)c1 (stereo not drawn) [Compound 332, 1-(3H-Benzoimidazol-5-yl)-5-(2,4-dimethyl-phenyl)-4-1,1,3,3-tetramethyl-butylimino-imidazolidine-2-thione] |
|  |  | 6700 nM | Cc1ccc(C2/C(=N/C3CCCCC3O)NC(=O)N2c2ccc3nc[nH]c3c2)c(C)c1 (stereo not drawn) [Compound 329, 1-(3H-Benzoimidazol-5-yl)-5-(2,4-dimethyl-phenyl)-4-2-hydroxy-cyclohexylimino-imidazolidin-2-one] |
|  |  | 1300 nM | O=C1CCCN1CCC/N=C1/NC(=O)N(c2ccc3[nH]cnc3c2)C1c1cc(F)cc(F)c1 (stereo not drawn) [Compound 335, 1-(1H-Benzoimidazol-5-yl)-5-(3,5-difluoro-phenyl)-4-3-(2-oxo-pyrrolidin-1-yl)-propylimino-imidazolidin-2-one] |
|  |  | 1300 nM | O=C1N/C(=N/CCN2CCOCC2)C(c2cccc(Br)c2)N1c1ccc2nc[nH]c2c1 (stereo not drawn) [Compound 341, 1-(3H-Benzoimidazol-5-yl)-5-(3-bromo-phenyl)-4-2-morpholin-4-yl-ethylimino-imidazolidin-2-one] |
| 205 °C | 23.5 nM | 4 nM | O=C1N/C(=N\C2CCCCC2)C(c2ccc(Br)cc2)N1c1ccc2nc[nH]c2c1 (stereo not drawn) [Compound 199, 1-(1H-Benzoimidazol-5-yl)-5-(4-bromo-phenyl)-4-(cyclohexylimino)-imidazolidin-2-one] |
|  |  | 4 nM | O=C(CN=C1NC(=O)N(c2ccc3[nH]cnc3c2)C1c1cc2c(cc1Br)OCO2)N1CCCCC1 (stereo not drawn) [Compound 327, 4-(2-Oxo-2-(piperidin-1-yl)ethylimino)-1-(1H-benzo[d]imidazol-5-yl)-5-(5-bromobenzo[d][1,3]dioxol-6-yl)imidazolidin-2-one] |
|  | 28.2 nM | 4 nM | O=C1N/C(=N\[C@H]2CCc3ccccc32)C(c2ccc(Br)cc2)N1c1ccc2[nH]cnc2c1 (stereo partly drawn) [Compound 333, 1-(1H-Benzoimidazol-5-yl)-5-(4-bromo-phenyl)-4-((S)-indan-1-ylimino)-imidazolidin-2-one] |
|  |  | 4 nM | O=C1N/C(=N\C2CCCc3ccccc32)C(c2cccc(Br)c2)N1c1ccc2[nH]cnc2c1 (stereo not drawn) [Compound 336, 1-(1H-Benzoimidazol-5-yl)-5-(3-bromo-phenyl)-4-1,2,3,4-tetrahydro-naphthalen-1-ylimino-imidazolidin-2-one] |
